Experiments:
Rat mGlu3 = target: T1, Rat mGlu3 (Rattus norvegicus, UniProt P31422); test: mGlu receptor in vitro assay (thallium flux through GIRK channels / calcium assay), rat mGlu3; type: cell-based; settings: PAM potency with EC20 glutamate
T1 construct: expressed in transfected cells; host or cells: HEK-293 co-expressing GIRK channels
Procedure: (§1) Human Embryonic Kidney (HEK-293) cell lines co-expressing rat mGlu receptors 2, 3, 4, 6, 7 or 8 and G protein-coupled inwardly-rectifying potassium (GIRK) channels were grown in Growth Media containing 45% DMEM, 45% F-12, 10% FBS, 20 mM HEPES, 2 mM L-glutamine, antibiotic/antimycotic, non-essential amino acids, 700 μg/mL G418, and 0.6 μg/ml puromycin at 37° C. in the presence of 5% CO2. […] All cell culture reagents were purchased from Invitrogen Corp. (Carlsbad, CA) unless otherwise noted. Calcium assays were used to assess activity of compounds at mGlu1 and mGlu5, as previously described in Engers et al (J. Med. Chem. 2009, 52, 4115-4118). Calcium assays at mGlu3 were performed as described for mGlu5 with the exception that TREx293 mGlu3 Gα15 cells were treated with tetracycline at 20 ng/mL for 20 h prior to assay.
(§2) Compound activity at the group II (mGlu2 and mGlu3) and group III (mGlu4, mGlu6, mGlu7, and mGlu8) was assessed using thallium flux through GIRK channels, a method that has been described in detail. Briefly, cells were plated into 384-well, black-walled, clear-bottomed poly-D-lysine-coated plates at a density of 15,000 cells/20 μL/well in DMEM containing 10% dialyzed FBS, 20 mM HEPES, and 100 units/mL penicillin/streptomycin (assay media). Plated cells were incubated overnight at 37° C. in the presence of 5% CO2. The following day, the medium was exchanged from the cells to assay buffer [Hanks' balanced salt solution (Invitrogen) containing 20 mM HEPES, pH 7.3] using an ELX405 microplate washer (BioTek), leaving 20 μL/well, followed by the addition of 20 μL/well FluoZin2-AM (330 nM final concentration) indicator dye (Invitrogen; prepared as a stock in DMSO and mixed in a 1:1 ratio with Pluronic acid F-127) in assay buffer. Cells were incubated for 1 h at room temperature, and the dye exchanged to assay buffer using an ELX405, leaving 20 μL/well. Test compounds were diluted to 2 times their final desired concentration in assay buffer (0.3% DMSO final concentration). Agonists were diluted in thallium buffer [125 mM sodium bicarbonate (added fresh the morning of the experiment), 1 mM magnesium sulfate, 1.8 mM calcium sulfate, 5 mM glucose, 12 mM thallium sulfate, and 10 mM HEPES, pH 7.3] at 5 times the final concentration to be assayed. Cell plates and compound plates were loaded onto a kinetic imaging plate reader (FDSS 6000 or 7000; Hamamatsu Corporation, Bridgewater, NJ). Appropriate baseline readings were taken (10 images at 1 Hz; excitation, 470±20 nm; emission, 540±30 nm) and test compounds were added in a 20 μL volume and incubated for approximately 2.5 min before the addition of 10 μL of thallium buffer with or without agonist. After the addition of agonist, data were collected for approximately an additional 2.5 min. Data were analyzed using Excel (Microsoft Corp, Redmond, WA). The slope of the fluorescence increase beginning 5 s after thallium/agonist addition and ending 15 s after thallium/agonist addition was calculated, corrected to vehicle and maximal agonist control slope values, and plotted in using either XLfit (ID Business Solutions Ltd) or Prism software (GraphPad Software, San Diego, CA) to generate concentration-response curves. Potencies were calculated from fits using a four-point parameter logistic equation. For concentration-response curve experiments, compounds were serially diluted 1:3 into 10-point concentration response curves and were transferred to daughter plates using an Echo acoustic plate reformatter (Labcyte, Sunnyvale, CA). Test compounds were applied and followed by EC20 concentrations of glutamate.

Rat mGlu2 = target: T2, Rat mGlu2 (Rattus norvegicus, UniProt P31421); test: mGlu receptor in vitro assay, thallium flux through GIRK channels, rat mGlu2; type: cell-based; settings: PAM potency with EC20 glutamate
T2 construct: expressed in transfected cells; host or cells: HEK-293 co-expressing GIRK channels
T2 sequence (P31421 19-872): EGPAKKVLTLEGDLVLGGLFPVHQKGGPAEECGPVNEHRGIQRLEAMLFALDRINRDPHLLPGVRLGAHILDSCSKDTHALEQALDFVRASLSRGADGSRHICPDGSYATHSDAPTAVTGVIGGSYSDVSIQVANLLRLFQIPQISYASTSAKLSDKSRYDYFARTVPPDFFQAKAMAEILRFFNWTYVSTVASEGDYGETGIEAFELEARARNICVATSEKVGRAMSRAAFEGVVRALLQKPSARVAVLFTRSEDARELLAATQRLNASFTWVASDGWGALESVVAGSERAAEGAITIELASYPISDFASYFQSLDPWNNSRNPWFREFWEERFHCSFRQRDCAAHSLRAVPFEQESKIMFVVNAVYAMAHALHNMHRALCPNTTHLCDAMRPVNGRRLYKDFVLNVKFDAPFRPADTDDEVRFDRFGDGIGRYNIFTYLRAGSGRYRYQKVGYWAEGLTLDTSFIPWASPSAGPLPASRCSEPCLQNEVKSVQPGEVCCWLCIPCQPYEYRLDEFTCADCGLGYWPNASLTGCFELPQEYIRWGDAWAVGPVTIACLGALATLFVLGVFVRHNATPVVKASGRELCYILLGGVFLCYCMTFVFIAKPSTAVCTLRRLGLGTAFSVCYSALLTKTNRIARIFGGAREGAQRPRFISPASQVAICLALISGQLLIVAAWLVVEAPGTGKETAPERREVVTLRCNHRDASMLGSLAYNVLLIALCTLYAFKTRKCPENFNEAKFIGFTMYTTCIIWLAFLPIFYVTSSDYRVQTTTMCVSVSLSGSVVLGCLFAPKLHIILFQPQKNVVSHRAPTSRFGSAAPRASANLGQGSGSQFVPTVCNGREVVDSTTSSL
Procedure: as §1, §2

T1 sequence (P31422 23-879): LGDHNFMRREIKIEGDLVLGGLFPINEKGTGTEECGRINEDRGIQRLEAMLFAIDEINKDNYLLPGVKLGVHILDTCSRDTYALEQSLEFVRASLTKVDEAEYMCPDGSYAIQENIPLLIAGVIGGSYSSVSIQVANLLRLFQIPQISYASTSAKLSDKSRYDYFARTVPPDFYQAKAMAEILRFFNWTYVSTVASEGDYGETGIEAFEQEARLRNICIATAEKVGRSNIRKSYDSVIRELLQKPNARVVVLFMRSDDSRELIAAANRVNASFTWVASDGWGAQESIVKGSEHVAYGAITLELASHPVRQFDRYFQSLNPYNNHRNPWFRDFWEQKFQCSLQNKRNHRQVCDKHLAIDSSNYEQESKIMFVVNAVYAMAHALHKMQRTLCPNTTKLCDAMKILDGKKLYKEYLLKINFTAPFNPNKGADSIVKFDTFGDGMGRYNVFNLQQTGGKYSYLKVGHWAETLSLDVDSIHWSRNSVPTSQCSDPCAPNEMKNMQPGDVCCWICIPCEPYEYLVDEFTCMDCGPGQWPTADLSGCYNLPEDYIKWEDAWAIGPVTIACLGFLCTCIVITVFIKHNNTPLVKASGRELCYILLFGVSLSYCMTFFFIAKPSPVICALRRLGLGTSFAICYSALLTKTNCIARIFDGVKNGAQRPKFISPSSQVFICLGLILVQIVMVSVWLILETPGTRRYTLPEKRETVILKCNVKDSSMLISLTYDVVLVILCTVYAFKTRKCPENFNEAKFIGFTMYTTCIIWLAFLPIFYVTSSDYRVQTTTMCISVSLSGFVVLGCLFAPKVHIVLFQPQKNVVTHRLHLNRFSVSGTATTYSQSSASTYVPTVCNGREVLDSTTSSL

Row | Compound | EC50 (Rat mGlu3) [nM] | EC50 (Rat mGlu2) [nM]
1 | CCCC(=O)c1ccc(OCCCCCOc2ccc(F)c(C(=O)O)c2)c(C)c1O [Example 48, 5-[5-(4-Butanoyl-3-hydroxy-2-methylphenoxy)pentyloxy]-2-fluorobenzoic acid] | > 10000 | 39
2 | Cc1nc(-c2cccc(-c3cnc(COc4ccc(C(=O)CC(C)(C)C)c(O)c4C)cn3)c2)no1 [compound 86, 1-(2-Hydroxy-3-methyl-4-((5-(3-(5-methyl-1,2,4-oxadiazol-3-yl)phenyl)pyrazin-2-yl)methoxy)phenyl)-3,3-dimethylbutan-1-one] | > 10000 | > 30000
3 | COc1ccc(C(=O)O)cc1OCCCCOc1ccc(C(O)CC(C)(C)C)c(O)c1C (centres unmarked) [compound 96, 3-{4-[3-Hydroxy-4-(1-hydroxy-3,3-dimethylbutyl)-2-methylphenoxy]butoxy}-4-methoxybenzoic acid] | > 10000 | 1640
4 | Cc1c(OCc2cnc(-c3cccc(-c4noc(=S)[nH]4)c3)cn2)ccc(C(=O)CC(C)(C)C)c1O [compound 123, 1-(2-Hydroxy-3-methyl-4-((5-(3-(5-thioxo-4,5-dihydro-1,2,4-oxadiazol-3-yl)phenyl)pyrazin-2-yl)methoxy)phenyl)-3,3-dimethylbutan-1-one] | 2640 | 2520
5 | Cc1c(OCc2cnc(-c3cccc(-c4nsc(=O)[nH]4)c3)cn2)ccc(C(=O)CC(C)(C)C)c1O [compound 125, 3-(3-(5-((4-(3,3-Dimethylbutanoyl)-3-hydroxy-2-methylphenoxy)methyl)pyrazin-2-yl)phenyl)-1,2,4-thiadiazol-5(4H)-one] | > 30000 | > 10000
6 | COc1ccc(C(=O)O)cc1OCCCCOc1ccc(C(=O)C(C)(C)C)c(O)c1C [compound 105, 3-(4-(3-Hydroxy-2-methyl-4-pivaloylphenoxy)butoxy)-4-methoxybenzoic acid] | 743 | 288
7 | CCCC(=O)c1ccc(OCOc2cccc(C(=O)O)c2C)c(C)c1O [compound 95, 3-[(4-Butanoyl-3-hydroxy-2-methylphenoxy)methoxy]-2-methylbenzoic acid] | > 30000 | 663
8 | Cc1c(OCc2cccc(-c3cccc(C(=O)O)c3)c2)ccc(C(=O)C2CC2)c1O [compound 68, 3′-((4-(Cyclopropanecarbonyl)-3-hydroxy-2-methylphenoxy)methyl)-[1,1′-biphenyl]-3-carboxylic acid] | 3730 | 186
9 | Cc1c(OCc2cccc(-c3cccc(C(=O)O)c3)c2)ccc(C(=O)c2ccccc2)c1O [compound 66, 3′-((4-Benzoyl-3-hydroxy-2-methylphenoxy)methyl)-[1,1′-biphenyl]-3-carboxylic acid] | 2280 | 769
10 | CCCC(=O)c1ccc(OCCCCCOc2ccc(C(=O)CCC)c(O)c2C)c(C)c1O [compound 111, 1-{4-[5-(4-Butanoyl-3-hydroxy-2-methylphenoxy)pentyloxy]-2-hydroxy-3-methylphenyl}butan-1-one] | > 30000 | > 10000
11 | CCCC(=O)c1ccc(OCCSCCOc2ccc(C(=O)O)cc2OC)c(C)c1O [Example 15, 4-{2-[2-(4-Butanoyl-3-hydroxy-2-methylphenoxy)ethylthio]ethoxy}-3-methoxybenzoic acid] | > 30000 | 18
12 | CCCC(=O)c1ccc(OCCCCCOc2cnc(C)c(C(=O)O)c2)c(C)c1O [compound 108, 5-[5-(4-Butanoyl-3-hydroxy-2-methylphenoxy)pentyloxy]-2-methylpyridine-3-carboxylic acid] | > 30000 | 110
13 | CCCCC(=O)c1ccc(OCCCCCOc2cccc(C(=O)O)c2C)c(C)c1O [Example 49, 3-[5-(3Hydroxy-2-methyl-4-pentanoylphenoxy)pentyloxy]-2-methylbenzoic acid] | > 10000 | 426

Further compounds by falling EC50 (Rat mGlu3), results first:

Row | EC50 (Rat mGlu3) [nM] | EC50 (Rat mGlu2) [nM] | Compound
14 | 2040 | 113 | Cc1c(OCCCCCOc2ccc(F)c(C(=O)O)c2)ccc(C(=O)CC(C)C)c1O [Example 47, 2-Fluoro-5-{5-[3-hydroxy-2-methyl-4-(3-methylbutanoyl)phenoxy]pentyloxy}benzoic acid]
15 | 1690 | 2480 | Cc1c(OCc2cnc(-c3cccc(-c4noc(=O)[nH]4)c3)cn2)ccc(C(=O)CC(C)(C)C)c1O [compound 124, 3-(3-(5-((4-(3,3-Dimethylbutanoyl)-3-hydroxy-2-methylphenoxy)methyl)pyrazin-2-yl)phenyl)-1,2,4-oxadiazol-5(4H)-one]
16 | 1220 | 207 | COc1ccc(C(=O)O)cc1OCCOc1ccc(C(=O)CC(C)(C)C)c(O)c1C [compound 93, 3-{2-[4-(3,3-Dimethylbutanoyl)-3-hydroxy-2-methylphenoxy]ethoxy}-4-methoxybenzoic acid]
17 | 1030 | 200 | Cc1c(OCc2cccc(-c3cccc(C(=O)O)c3)c2)ccc(C(=O)Cc2ccccc2)c1O [compound 161, 3′-((3-Hydroxy-2-methyl-4-(2-phenylacetyl)phenoxy)methyl)-[1,1′-biphenyl]-3-carboxylic acid]
18 | 625 | 1800 | Cc1c(OCc2cnc(-c3cccc(C(=O)O)c3)cn2)ccc(C(=O)c2ccccc2)c1O [compound 67, 3-(5-((4-Benzoyl-3-hydroxy-2-methylphenoxy)methyl)pyrazin-2-yl)benzoic acid]
19 | 593 | 782 | Cc1c(OCc2cnc(-c3cccc(C(=O)O)c3)cn2)ccc(C(=O)Cc2ccccc2)c1O [compound 121, 3-(5-((3-Hydroxy-2-methyl-4-(2-phenylacetyl)phenoxy)methyl)pyrazin-2-yl)benzoic acid]
20 | 523 | 535 | Cc1c(OCc2cnc(-c3ccc(C(=O)O)c(Cl)c3)cn2)ccc(C(=O)CC(C)(C)C)c1O [compound 106, 4-(5-{[4-(3,3-Dimethylbutanoyl)-3-hydroxy-2-methylphenoxy]methyl}pyrazin-2-yl)-2-chlorobenzoic acid]
21 | 333 | 1270 | Cc1c(OCc2cnc(-c3cccc(C(=O)NC4CC4)c3)cn2)ccc(C(=O)CC(C)(C)C)c1O [compound 113, N-Cyclopropyl-3-(5-((4-(3,3-dimethylbutanoyl)-3-hydroxy-2-methylphenoxy)methyl)pyrazin-2-yl)benzamide]
22 | 281 | 217 | Cc1c(OCc2cncc(-c3cccc(C(=O)O)c3)n2)ccc(C(=O)CC(C)(C)C)c1O [compound 112, 3-(6-((4-(3,3-Dimethylbutanoyl)-3-hydroxy-2-methylphenoxy)methyl)pyrazin-2-yl)benzoic acid]
23 | 258 | 391 | Cc1c(OCc2ccnc(-c3cccc(C(=O)O)c3)n2)ccc(C(=O)CC(C)(C)C)c1O [compound 114, 3-(4-((4-(3,3-Dimethylbutanoyl)-3-hydroxy-2-methylphenoxy)methyl)pyrimidin-2-yl)benzoic acid]
24 | 234 | 57 | COc1ccc(C(=O)O)cc1OCCCOc1ccc(C(=O)CC(C)(C)C)c(O)c1C [compound 92, 3-{3-[4-(3,3-Dimethylbutanoyl)-3-hydroxy-2-methylphenoxy]propoxy}-4-methoxybenzoic acid]
25 | 73 | 38 | Cc1c(OC/C=C/COc2ccc(C(=O)CC(C)(C)C)c(O)c2C)cccc1C(=O)O [Example 21, 3-{(2E)-4-[4-(3,3-Dimethylbutanoyl)-3-hydroxy-2-methylphenoxy]but-2-enyloxy}-2-methylbenzoic acid]

Source: patent US20250179000A1 (Sanford Burnham Prebys Medical Discovery Institute, priority 2021, published 2025)
